According to publication PMC4904371, “Luteolin inhibits GABAA receptors in HEK cells and brain slices” (Scientific Reports, 2016):

How the values were obtained:
α1β2 GABAAR = target: T1, α1β2 GABAAR (Rattus norvegicus, UniProt P62813+P63138); test: whole-cell patch clamp, inhibition of GABA-evoked current; format: cell-based
T1 construct: gene Gabra1; full-length subunits in pcDNA3.1, co-transfected in HEK293T cells; GFP as separate marker; pentamer

α5β2 GABAAR = target: T2, α5β2 GABAAR (Rattus norvegicus, UniProt P19969+P63138); test: as above; format: cell-based
T2 construct: gene Gabra5; full-length subunits in pcDNA3.1, co-transfected in HEK293T cells; GFP as separate marker; pentamer
T2 sequence (P19969 26-464): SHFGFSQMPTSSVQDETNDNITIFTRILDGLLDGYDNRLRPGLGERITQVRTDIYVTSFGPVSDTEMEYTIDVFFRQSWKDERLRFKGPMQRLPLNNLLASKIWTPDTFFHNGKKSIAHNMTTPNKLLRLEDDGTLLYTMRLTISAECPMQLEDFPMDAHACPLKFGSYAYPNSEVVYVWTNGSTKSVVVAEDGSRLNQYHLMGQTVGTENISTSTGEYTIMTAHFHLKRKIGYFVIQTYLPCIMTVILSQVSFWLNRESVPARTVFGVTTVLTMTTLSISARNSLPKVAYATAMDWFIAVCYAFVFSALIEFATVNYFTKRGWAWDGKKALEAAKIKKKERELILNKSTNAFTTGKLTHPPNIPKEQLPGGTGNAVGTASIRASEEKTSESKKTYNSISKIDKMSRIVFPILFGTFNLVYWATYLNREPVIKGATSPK
T2 sequence (P63138 26-474): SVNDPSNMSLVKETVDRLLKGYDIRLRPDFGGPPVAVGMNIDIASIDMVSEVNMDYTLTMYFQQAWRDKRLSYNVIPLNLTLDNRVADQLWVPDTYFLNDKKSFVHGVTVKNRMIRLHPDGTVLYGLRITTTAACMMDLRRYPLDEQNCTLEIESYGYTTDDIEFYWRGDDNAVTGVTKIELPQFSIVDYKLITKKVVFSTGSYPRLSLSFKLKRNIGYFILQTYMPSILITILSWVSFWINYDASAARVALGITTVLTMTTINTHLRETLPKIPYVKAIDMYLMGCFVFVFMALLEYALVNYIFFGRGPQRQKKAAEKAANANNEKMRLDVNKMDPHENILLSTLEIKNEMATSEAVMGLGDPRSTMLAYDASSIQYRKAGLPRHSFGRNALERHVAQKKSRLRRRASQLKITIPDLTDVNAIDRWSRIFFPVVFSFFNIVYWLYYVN

T1 sequence (P62813 28-455): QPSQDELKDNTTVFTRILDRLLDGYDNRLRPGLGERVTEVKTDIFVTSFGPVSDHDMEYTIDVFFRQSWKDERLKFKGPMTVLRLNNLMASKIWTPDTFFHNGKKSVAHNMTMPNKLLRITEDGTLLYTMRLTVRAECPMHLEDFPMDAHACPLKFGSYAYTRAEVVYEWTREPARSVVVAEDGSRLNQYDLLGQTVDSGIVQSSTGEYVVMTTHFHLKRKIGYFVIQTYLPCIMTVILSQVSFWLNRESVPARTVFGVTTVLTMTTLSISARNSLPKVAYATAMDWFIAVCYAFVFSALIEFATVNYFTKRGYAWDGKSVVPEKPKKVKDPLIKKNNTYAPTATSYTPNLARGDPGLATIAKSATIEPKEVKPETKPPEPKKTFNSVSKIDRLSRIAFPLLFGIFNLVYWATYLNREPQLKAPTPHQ
T1 sequence (P63138 26-474): as the sequence (P63138 26-474) above

## O=c1cc(-c2ccc(O)c(O)c2)oc2cc(O)cc(O)c12 [luteolin, 2-(3,4-Dihydroxyphenyl)-5,7-dihydroxy-4-chromenone]
α1β2 GABAAR
  IC50: 10.8 ± 4.46 µM
α5β2 GABAAR
  IC50: 25.4 ± 9 µM
